Measurements from patent publication US20070167412A1, “HALOCOMBSTATINS AND METHODS OF SYNTHESIS THEREOF” (ARIZONA BOARD OF REGENTS, priority 2003, published 2007).

Key:
Assay in all cases: reference broth microdilution susceptibility assay
Assay type in all cases: cell-based
Conditions in all cases: Table III
Candida albicans = tested on: Candida albicans
Procedure, shortened: (§1)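 Broth microdilution, NCCLS reference protocols: M7-A5 for M. luteus and E. coli; M27-A for C. neoformans and C. albicans.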

Cryptococcus neoformans = tested on: Cryptococcus neoformans
Procedure, shortened: as §1

Streptococcus pneumoniae = tested on: Streptococcus pneumoniae
Procedure, shortened: (§2)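 Compounds are serially diluted in broth and tested for microbial susceptibility by the standard microdilution procedure. Bacteria are handled per approved standard M7-A5 and yeasts per approved standard M27-A.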

Escherichia coli = tested on: Escherichia coli
Procedure, shortened: as §1

Neisseria gonorrhoeae = tested on: Neisseria gonorrhoeae
Procedure, shortened: as §2

[1] = tested on: Stenotrophomonas maltophilia
Procedure, shortened: as §2

Micrococcus luteus = tested on: Micrococcus luteus
Procedure, shortened: as §1

Enterococcus faecalis = tested on: Enterococcus faecalis
Procedure, shortened: as §2

Enterobacter cloacae = tested on: Enterobacter cloacae
Procedure, shortened: as §2

Staphylococcus aureus = tested on: Staphylococcus aureus
Procedure, shortened: as §2

With `COc1ccc(/C=C\c2cc(I)c(OC)c(OC)c2)cc1O` [Compound 14a, 3-Iodo-4,4′,5-trimethoxy-3′-hydroxy-z-stilbene] the “Range of minimum inhibitory concentration, Candida albicans” value (Candida albicans) was “* (no inhibition at 64 μg/ml)”, the “Range of minimum inhibitory concentration, Cryptococcus neoformans” value (Cryptococcus neoformans) was 32 to 64 µg/mL and the “Range of minimum inhibitory concentration, Streptococcus pneumoniae” value (Streptococcus pneumoniae) was 64 µg/mL. For the same compound, the “Range of minimum inhibitory concentration, Escherichia coli” value (Escherichia coli) was “* (no inhibition at 64 μg/ml)”, the “Range of minimum inhibitory concentration, Neisseria gonorrhoeae” value (Neisseria gonorrhoeae) was 16 to 32 µg/mL and the “Range of minimum inhibitory concentration, Stenotrophomonas maltophilia” value [1] was “* (no inhibition at 64 μg/ml)”. The “Range of minimum inhibitory concentration, Micrococcus luteus” value (Micrococcus luteus) was 16 to 32 µg/mL, the “Range of minimum inhibitory concentration, Enterococcus faecalis” value (Enterococcus faecalis) was “* (no inhibition at 64 μg/ml)” and the “Range of minimum inhibitory concentration, Enterobacter cloacae” value (Enterobacter cloacae) was “* (no inhibition at 64 μg/ml)”. The “Range of minimum inhibitory concentration, Staphylococcus aureus” value (Staphylococcus aureus) was “* (no inhibition at 64 μg/ml)”.
